# Assay results: US20180003723A1, “METHODS AND SYSTEMS FOR […] DISORDERS” (OASIS DIAGNOSTICS CORPORATION, priority 2014, published 2018)
# Experiments:
# [1] = test system: patients diagnosed with idiopathic central sleep apnea; assay: Hospital based clinical trial of zolpidem: follow-up polysomnogram and Epworth Sleepiness Scale; type: in vivo, human
# Description: Idiopathic central sleep apnea was defined by central apnea and hypopnea index (CAHI)≧10 events per hour of sleep, and obstructive apnea/hypopnea index ≦5 events per hour of sleep. An apnea was defined as a cessation or reduction in peak oronasal airflow≧70% of baseline, lasting ≧15 s. Hypopnea was defined as a reduction in peak oronasal airflow ≧50%, ≧70% of baseline for ≧15 s, along with a ≧4% drop in SpO2 relative to pre-event baseline value. The apnea/hypopnea index was calculated for all events relative to total sleep time and documented separately for central and obstructive events. Central apneas and hypopneas comprised the central and obstructive apneas and hypopneas plus mixed apneas and hypopneas comprised the obstructive apnea-hypopnea index (OAHI). Exclusion criteria comprise such as clinical or echocardiographic diagnosis of systolic heart failure, diastolic cardiac dysfunction, or a history of transient ischemic attack or stroke. Those with a typical pattern of Cheyne Stokes respiration during sleep were also excluded. Patients with obstructive sleep apnea with an Apnea-Hypopnea Index of (AHI) ≧5 events per hour prior to continuous positive airway pressure device (CPAP) use, or a history of restless legs syndrome/periodic leg movements were also excluded. […] Patients with hypercapnic lung disease or those with obesity hypoventilation syndrome were also excluded. Subjects were given the Epworth Sleepiness Scale (ESS), and a physical exam followed by an 8-h diagnostic polysomnogram (PSG). […] Outpatient monitoring was conducted every four weeks to assess patients for side effects and for evaluation of daytime sleepiness, using the ESS. […] Nocturnal polysomnographic assessment using the Grass Aurora system was performed in a standard way consisting of an electroencephalogram (EEG), an electrooculogram (EOG), a submental electromyogram (EMG), an anterior tibialis EMG, and an electrocardiogram (ECG) (Rechtschaffen A, Kales A. A manual of standardized terminology, techniques and scoring system for sleep stages in human subjects. Washington D.C.: US Government Printing Office. National Institute of Health Publication; 1968). Nasal-oral airflow was measured using thermocouples. Abdominal and thoracic respiratory movements were recorded with respiratory effort belts using piezoelectric crystal sensors. Transcutaneous oxyhemoglobin saturation (SpO2) was monitored with finger pulse oximetry. A recording of sleep position was performed using video monitoring and snoring was recorded using a snore sensor. An experienced sleep physician, blinded to the study protocol, scored sleep recordings. Sleep architecture was analyzed according to standardized way (Rechtschaffen A, Kales A. A manual of standardized terminology, techniques and scoring system for sleep stages in human subjects. Washington D.C.: US Government Printing Office. National Institute of Health Publication; 1968). Unstimulated saliva samples were collected and biomarker levels measured in the morning prior to beginning and after 150 days of study. Ten minutes prior to collection of unstimulated saliva samples, individuals were asked to rinse orally with water. At the time of sample collection, study members were asked to relax for 5-15 minutes. They were then seated in a bent forward position in an ordinary chair and asked to put their tongues on the lingual surfaces of the upper incisors and allow the saliva to drip into sterile plastic (glass) tubes treated with […] of 2% sodium azide solution to prevent microbial decomposition of saliva. The tubes were held to the lower lip for 10 minutes resulting in a collection of 1-5 ml of saliva per individual.
# [2] = test system: patients with idiopathic central sleep apnea; assay: Salivary biomarker levels before and after zolpidem treatment (commercial kits, NMR); type: in vivo, human; conditions: unstimulated saliva, morning, after 150 days of study, mean
# Description: Idiopathic central sleep apnea was defined by central apnea and hypopnea index (CAHI)≧10 events per hour of sleep, and obstructive apnea/hypopnea index ≦5 events per hour of sleep. An apnea was defined as a cessation or reduction in peak oronasal airflow≧70% of baseline, lasting ≧15 s. Hypopnea was defined as a reduction in peak oronasal airflow ≧50%, ≧70% of baseline for ≧15 s, along with a ≧4% drop in SpO2 relative to pre-event baseline value. The apnea/hypopnea index was calculated for all events relative to total sleep time and documented separately for central and obstructive events. Central apneas and hypopneas comprised the central and obstructive apneas and hypopneas plus mixed apneas and hypopneas comprised the obstructive apnea-hypopnea index (OAHI). Exclusion criteria comprise such as clinical or echocardiographic diagnosis of systolic heart failure, diastolic cardiac dysfunction, or a history of transient ischemic attack or stroke. Those with a typical pattern of Cheyne Stokes respiration during sleep were also excluded. Patients with obstructive sleep apnea with an Apnea-Hypopnea Index of (AHI) ≧5 events per hour prior to continuous positive airway pressure device (CPAP) use, or a history of restless legs syndrome/periodic leg movements were also excluded. Patients with prior use of sedative agents such as zolpidem, acetazolamide, theophylline, medroxyprogesterone, or any opiate, were also excluded from the study to exclude comparative bias when evaluating subjective response to zolpidem. Patients with hypercapnic lung disease or those with obesity hypoventilation syndrome were also excluded. Subjects were given the Epworth Sleepiness Scale (ESS), and a physical exam followed by an 8-h diagnostic polysomnogram (PSG). […] Outpatient monitoring was conducted every four weeks to assess patients for side effects and for evaluation of daytime sleepiness, using the ESS. […] Nocturnal polysomnographic assessment using the Grass Aurora system was performed in a standard way consisting of an electroencephalogram (EEG), an electrooculogram (EOG), a submental electromyogram (EMG), an anterior tibialis EMG, and an electrocardiogram (ECG) (Rechtschaffen A, Kales A. A manual of standardized terminology, techniques and scoring system for sleep stages in human subjects. Washington D.C.: US Government Printing Office. National Institute of Health Publication; 1968). Nasal-oral airflow was measured using thermocouples. Abdominal and thoracic respiratory movements were recorded with respiratory effort belts using piezoelectric crystal sensors. Transcutaneous oxyhemoglobin saturation (SpO2) was monitored with finger pulse oximetry. A recording of sleep position was performed using video monitoring and snoring was recorded using a snore sensor. An experienced sleep physician, blinded to the study protocol, scored sleep recordings. Sleep architecture was analyzed according to standardized way (Rechtschaffen A, Kales A. A manual of standardized terminology, techniques and scoring system for sleep stages in human subjects. Washington D.C.: US Government Printing Office. National Institute of Health Publication; 1968). Unstimulated saliva samples were collected and biomarker levels measured in the morning prior to beginning and after 150 days of study. Ten minutes prior to collection of unstimulated saliva samples, individuals were asked to rinse orally with water. At the time of sample collection, study members were asked to relax for 5-15 minutes. They were then seated in a bent forward position in an ordinary chair and asked to put their tongues on the lingual surfaces of the upper incisors and allow the saliva to drip into sterile plastic (glass) tubes treated with […] of 2% sodium azide solution to prevent microbial decomposition of saliva. The tubes were held to the lower lip for 10 minutes resulting in a collection of 1-5 ml of saliva per individual. […]
# [3] = follow-up polysomnogram vs before treatment
compound,measurement,setting,value
Cc1ccc(-c2nc3ccc(C)cn3c2CC(=O)N(C)C)cc1 [zolpidem],"Excessive daytime sleepiness, measured by the Epworth Sleepiness Scale (ESS), change",[1]; after vs before treatment,decreased
same,"central AHI (CAHI), change on follow-up polysomnogram",[1]; [3],significantly decreased
same,"sleep latency, change",[1]; [3],decreased
same,"stage 1, 3, and 4 sleep percentages, change",[1]; [3],decreased
same,"stage 2 percentages, change",[1]; [3],increased
same,"total number of arousals per hour, change with treatment use",[1]; [3],decreased
same,"Apnea hypopnea, After","[1]; mean, 10 patients, zolpidem 10 mg orally each night, repeat PSG six to ten weeks after initiation, Before 32.6, P 0.0001",12.6
same,"Epworth sleepiness score, After","[1]; mean, zolpidem 10 mg orally each night, Before 13.7, P 0.0001",6.5
same,"% TST stage 3 and 4, After","[1]; mean, zolpidem 10 mg orally each night, repeat PSG six to ten weeks, Before 1.3, P 0.05",0.8%
same,"Total sleep time, After","[1]; mean, zolpidem 10 mg orally each night, repeat PSG six to ten weeks, Before 4.6, P 0.005",6.3 h
same,"% TST REM, After","[1]; mean, zolpidem 10 mg orally each night, repeat PSG six to ten weeks, Before 10.4, P 0.05",14.5%
same,"% TST stage 1, After","[1]; mean, zolpidem 10 mg orally each night, repeat PSG six to ten weeks, Before 34.6, P 0.05",21.3%
same,"Salivary Arginine, After Treatment","[2]; Before Treatment 0.56, P 0.001",0.45 µmol/mL
same,"Salivary Creatine, After Treatment","[2]; Before Treatment 0.64, P 0.001",0.47 µmol/mL
same,"Salivary Tyrosine, After Treatment","[2]; Before Treatment 0.67, P 0.005",0.54 µmol/mL
same,"Salivary CgA, After Treatment","[2]; Before Treatment 13.68, P 0.0001",4.23 pmol/mg protein
same,"Salivary Dihomo-linolenate, After Treatment","[2]; Before Treatment 34.4, P 0.0001",27.1 µmol/mL
same,"Salivary Linolenate, After Treatment","[2]; Before Treatment 36.5, P 0.0001",21.2 µmol/mL
same,"Salivary 3-methyl-2-oxobutyrate, After Treatment","[2]; Before Treatment 61.2, P 0.005",54.1 µmol/mL
same,"Salivary Annexin 1, After Treatment","[2]; Before Treatment 72.1, P 0.0001",56.3 ng/mL
same,"Salivary BDNF, After Treatment","[2]; Before Treatment 345.8, P 0.0001",234.5 pg/mL
same,"Salivary B-endorphin, After Treatment","[2]; Before Treatment 2134.9, P 0.0001",1235.3 pg/mL
